Measured values published in EP4793279A1, “COMPOUND AND METHOD FOR TREATING AND/OR […] KERATOSIS” (priority 2023, dated 2025).
Where two headings read alike, the source gives them in different places.

Legend:
[1] = in water
[2] = 20 °C
[3] = for Labeled amount / Related substances Impurity A / Related substances Impurity B / Related substances Impurity C / Related substances Impurity D / Related substances Impurity E / Related substances Impurity F / Related substances RRT0.73 / Related substances RRT1.10 / Related substances RRT2.18 / Related substances Total impurities: mixed 1:5 with CMC-Na
[4] = for plasma drug concentrations above the LLOQ: topical gel, dose levels 1-5, LLOQ 0.02 ng/mL
[5] = system: human liver cancer HepG2 cells; settings: cited from earlier work
[6] = biological target: beclin1 (Homo sapiens, UniProt Q14457); settings: targets beclin1; cited from earlier work
beclin1, sequence (Q14457 whole entry, species assumed): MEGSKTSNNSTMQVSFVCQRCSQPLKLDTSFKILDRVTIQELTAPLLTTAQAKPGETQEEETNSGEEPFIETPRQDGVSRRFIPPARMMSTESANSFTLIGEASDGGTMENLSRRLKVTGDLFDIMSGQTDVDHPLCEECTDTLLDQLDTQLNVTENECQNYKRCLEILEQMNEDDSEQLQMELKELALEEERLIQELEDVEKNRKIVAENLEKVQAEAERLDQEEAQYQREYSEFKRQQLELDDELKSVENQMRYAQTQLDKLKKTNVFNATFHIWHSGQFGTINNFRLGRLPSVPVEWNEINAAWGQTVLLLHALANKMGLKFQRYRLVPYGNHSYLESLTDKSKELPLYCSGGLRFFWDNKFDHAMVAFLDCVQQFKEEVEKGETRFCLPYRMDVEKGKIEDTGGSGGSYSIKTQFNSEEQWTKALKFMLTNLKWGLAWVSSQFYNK

[7] = system: experimental autoimmune encephalomyelitis (EAE); settings: in vivo; cited from earlier work
[8] = High humidity for 10 days (RH 90%±5%)
[9] = High temperature for 10 days (60°C±2°C)

In the case of CO[C@H]1[C@H](O)[C@H](O[C@H]2CC[C@@]3(C)[C@H](CC[C@@H]4[C@@H]3CC[C@]3(C)[C@@H](C5=CC(=O)OC5)CC[C@]43O)C2)O[C@@H](C)[C@@H]1O [17β-neriifolin], the water solubility [1] is reported as “about 70 µg/mL”, the Dissolution behavior ([2]; Ethanol concentration 50 %, sample concentration 24 mg/g) is reported as “Dissolved” and the Dissolution behavior ([2]; Ethanol concentration 66 %, sample concentration 32 mg/g) is reported as “Dissolved”. The Dissolution behavior ([2]; Ethanol concentration 75 %, sample concentration 40 mg/g) was “Dissolved”, the Dissolution behavior ([2]; Ethanol concentration 100 %, sample concentration 50 mg/g) was “Dissolved” and the “stability of the combination” value ([3]; combination with sodium carboxymethyl cellulose compared with combination with Carbomer) was “significantly superior”. The “impact on the related substances and drug content” value ([3]; combined 1:5 with sodium carboxymethyl cellulose, high temperature, high humidity, illumination, 10 days) was “no impact”, the Labeled amount ([3]; 0 days) was 99.56% and the “Related substances Impurity A” value ([3]; 0 days) was 0.17%. The “Related substances Impurity B” value ([3]; 0 days) was 0.36%, the “Related substances Impurity C” value ([3]; 0 days) was 0.25% and the “Related substances Impurity D” value ([3]; 0 days) was 0.13%. The “Related substances Impurity E” value ([3]; 0 days) was 0.15%, the “Related substances Impurity F” value ([3]; 0 days) was 0.14% and the “Related substances RRT0.73” value ([3]; 0 days) was 0.05%. The “Related substances RRT1.10” value ([3]; 0 days) was 0.04%, the “Related substances RRT2.18” value ([3]; 0 days) was 0.03% and the “Related substances Total impurities” value ([3]; 0 days) was 1.32%. The Labeled amount [3, 8] was 99.42%, the “Related substances Impurity A” value [3, 8] was 0.17% and the “Related substances Impurity B” value [3, 8] was 0.36%. The “Related substances Impurity C” value [3, 8] was 0.25%, the “Related substances Impurity D” value [3, 8] was 0.13% and the “Related substances Impurity E” value [3, 8] was 0.15%. For the same compound, the “Related substances Impurity F” value [3, 8] was 0.14%, the “Related substances RRT0.73” value [3, 8] was 0.05% and the “Related substances RRT1.10” value [3, 8] was 0.04%. The “Related substances RRT2.18” value [3, 8] was 0.03%, the “Related substances Total impurities” value [3, 8] was 1.32% and the Labeled amount [3, 9] was 100.95%. The “Related substances Impurity A” value [3, 9] was 0.17%, the “Related substances Impurity B” value [3, 9] was 0.36% and the “Related substances Impurity C” value [3, 9] was 0.25%. The “Related substances Impurity D” value [3, 9] was 0.13%, the “Related substances Impurity E” value [3, 9] was 0.15% and the “Related substances Impurity F” value [3, 9] was 0.14%. For the same compound, the “Related substances RRT0.73” value [3, 9] was 0.05%, the “Related substances RRT1.10” value [3, 9] was 0.04% and the “Related substances RRT2.18” value [3, 9] was 0.03%. The “Related substances Total impurities” value [3, 9] was 1.32%, the Labeled amount ([3]; Strong light for 10 days) was 99.96% and the “Related substances Impurity A” value ([3]; Strong light for 10 days) was 0.17%. The “Related substances Impurity B” value ([3]; Strong light for 10 days) was 0.36%, the “Related substances Impurity C” value ([3]; Strong light for 10 days) was 0.25% and the “Related substances Impurity D” value ([3]; Strong light for 10 days) was 0.13%. For the same compound, the “Related substances Impurity E” value ([3]; Strong light for 10 days) was 0.15%, the “Related substances Impurity F” value ([3]; Strong light for 10 days) was 0.14% and the “Related substances RRT0.73” value ([3]; Strong light for 10 days) was 0.05%. For the same compound, the “Related substances RRT1.10” value ([3]; Strong light for 10 days) was 0.04%, the “Related substances RRT2.18” value ([3]; Strong light for 10 days) was 0.03% and the “Related substances Total impurities” value ([3]; Strong light for 10 days) was 1.32%. For the same compound, the “systemic exposure, dose dependence” value ([4]; 0.008-0.06 mg/cm^2 dose range) was “No dose-dependent increase”, the “plasma drug concentrations above the LLOQ” value ([4]; four Australian subjects) was 0.021 to 0.101 ng/mL and the “plasma drug concentrations above the LLOQ” value ([4]; seven Chinese subjects) was 0.022 to 0.106 ng/mL. The “cell cycle arrest and apoptosis” value [5] was “induce cell cycle arrest and apoptosis”.
For CO[C@H]1[C@H](O)[C@H](O[C@H]2CC[C@@]3(C)[C@H](CC[C@@H]4[C@@H]3CC[C@]3(C)[C@@H](C5=CC(=O)OC5)CC[C@]43O)C2)O[C@@H](C)[C@@H]1O [neriifolin], the “formation of LC3-associated phagosomes” value [6] is listed as “inhibit the formation of LC3-associated phagosomes” and the “progression of experimental autoimmune encephalomyelitis (EAE)” value [7] is listed as “ameliorate the progression”.
